Results as given in PubChem BioAssay (NCI).
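Here, GI50 denotes the concentration required for 50% inhibition of growth. TGI marks complete inhibition of growth.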

Legend:
Experiment in all cases: growth of human tumour cells (NCI), 384-well format
MOLT-4 leukemia = system: MOLT-4 leukemia
T-47D breast = system: T-47D breast
MDA-MB-435 melanoma = system: MDA-MB-435 melanoma
MDA-MB-468 breast = system: MDA-MB-468 breast
NCI-H322M lung = system: NCI-H322M lung
SW-620 colon = system: SW-620 colon
IGROV1 ovarian = system: IGROV1 ovarian
PC-3 prostate = system: PC-3 prostate
UO-31 renal = system: UO-31 renal
NCI-H226 lung = system: NCI-H226 lung
SNB-75 CNS = system: SNB-75 CNS
U251 glioblastoma = system: U251 glioblastoma
TK-10 renal = system: TK-10 renal

Row | SMILES | GI50 (MOLT-4 leukemia) | TGI (MOLT-4 leukemia) | GI50 (T-47D breast) | TGI (T-47D breast) | GI50 (MDA-MB-435 melanoma) | TGI (MDA-MB-435 melanoma) | GI50 (MDA-MB-468 breast) | TGI (MDA-MB-468 breast) | GI50 (NCI-H322M lung) | TGI (NCI-H322M lung) | GI50 (SW-620 colon) | TGI (SW-620 colon) | GI50 (IGROV1 ovarian) | TGI (IGROV1 ovarian) | GI50 (PC-3 prostate) | TGI (PC-3 prostate) | GI50 (UO-31 renal) | TGI (UO-31 renal) | GI50 (NCI-H226 lung) | TGI (NCI-H226 lung) | other results
1 | Cc1nc(NC(=O)N2CCC[C@H]2C(N)=O)sc1-c1ccnc(C(C)(C)C(F)(F)F)c1 | 0.857 µM | 4.24 µM | 0.0839 µM | 0.592 µM | 24.6 µM | > 80.3 µM | 1.26 µM | 7.64 µM | 4.6 µM | 26.6 µM | 8.53 µM | 40.2 µM | 0.118 µM | 1.34 µM | 5.73 µM | 25.4 µM | 8.46 µM | 58.5 µM | 8.88 µM | 32.5 µM | GI50 (SNB-75 CNS): 1.17 µM; TGI (SNB-75 CNS): 8.53 µM; GI50 (U251 glioblastoma): 10.3 µM; TGI (U251 glioblastoma): 39.5 µM; GI50 (TK-10 renal): 4.71 µM; TGI (TK-10 renal): 28.5 µM
2 | CC(=O)N1CC(F)(F)c2c(Sc3ncc(N4CCC5(CC4)COC[C@H]5N)nc3N)cccc21 | 14.1 µM | 27.2 µM | 11.5 µM | 26.3 µM | 29.1 µM | 91.7 µM | 1.52 µM | 8.19 µM | 2.08 µM | 27.7 µM | 11.5 µM | 23.9 µM | 6.38 µM | 24.5 µM | 13.4 µM | 48.6 µM | 6.39 µM | 20.3 µM | 2.48 µM | 41.9 µM | GI50 (SNB-75 CNS): 5.83 µM; TGI (SNB-75 CNS): 29.1 µM; GI50 (U251 glioblastoma): 12.7 µM; TGI (U251 glioblastoma): 26.6 µM; GI50 (TK-10 renal): 4.9 µM; TGI (TK-10 renal): 19.2 µM
